Source: US9234200B2, “Oligonucleotide, glucocorticoid sensitivity enhancer, pharmaceutical composition, and expression vector” (National University Corporation Tokyo University of …, priority 2011, dated 2016)

Key:
[1] = system: GRα and GRβ; settings: HT-29 cells and MCF-7 cells; in words; cited from earlier work
[2] = system: GRα and GRβ; assay: GRα and GRβ expression levels in Raji cells transfected with oligonucleotide (RT-PCR and PCR); type: cell-based, human; settings: for GAPDH / GRα / GRβ: expression level (band intensity), oligonucleotide 300 nM by electroporation, 24 h; for GAPDH: endogenous control; for GRα/GAPDH / GRβ/GAPDH / Relative value of GRα/GRβ: oligonucleotide 300 nM; for Relative value of GRα/GRβ: cells not transfected = 1;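 as to GAPDH: mean of three independent experiments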
Procedure: Raji cells (manufactured by Japan Health Science Foundation) derived from human Burkitt's lymphoma were used in experiments.
Raji cells were cultured and maintained in RPMI1640 medium (manufactured by Gibco) at 37° C. in an atmosphere of 5% CO2, the RPMI1640 medium being supplemented with 10% fetal bovine serum (FBS) (manufactured by Filtoron), 100 U/ml penicillin, and 100 μg/ml streptomycin.
2×10^6 Raji cells were washed with phosphate-buffered saline (PBS) and suspended in 100 μl transfection reagent of an Amaxa cell line Nucleofector Kit V (manufactured by Lonza).
After the Raji cells were cultured in the above-described medium for 24 hours, the Raji cells were used for subsequent experiments.
The expression level of glyceraldehyde-3-phosphate dehydrogenase (GAPDH) was determined as an endogenous control.
After the Raji cells were washed with PBS, RNA was extracted using a FastPure RNA Kit (manufactured by Takara Bio Inc.), and reverse transcription was performed using a PrimeScript 1st strand cDNA synthesis kit (manufactured by Takara Bio Inc.). The obtained cDNA was amplified using Platinum Taq DNA polymerase (manufactured by Invitrogen) and PCR primers (having the base sequences shown in Table 2) specific for the gene of interest. The PCR conditions included: performing initial denaturation at 94° C. for 2 minutes; performing 35 cycles of denaturation (94° C. for 30 seconds), annealing (55° C. for 30 seconds), and extension (72° C. for 1 minute); and then performing final extension at 72° C. for 4 minutes.
After the PCR was performed, DNA was separated by […] electrophoresis on a 2% agarose gel containing ethidium bromide, and the intensity of bands was quantified using an image analyzer GEL PRINT 2000i/VGA (manufactured by Genomic Solutions).

[3] = system: ERα and ERβ; assay: Estrogen receptor expression level in Raji cells transfected with oligonucleotide 1 (RT-PCR and PCR); type: cell-based, human
Procedure: Estrogen receptor (ER) has two splice variants: ERα and ERβ. It is known that SRp30c is involved in regulating the splicing of ER mRNA.
The expressions levels of ERα and ERβ in Raji cells transfected with oligonucleotide 1 were determined by RT-PCR and PCR.
Raji cells transfected with oligonucleotide 1 were obtained in the same manner as in “Cell Culture” and “Introduction of Oligonucleotide into Cells” in Example 1. The oligonucleotide 1 concentration at the time of introduction into cells was 300 nM.
After the Raji cells were washed with PBS, RNA was extracted using a FASTPURE RNA Kit (manufactured by Takara Bio Inc.), and reverse transcription was performed using a PRIMESCRIPT 1st strand cDNA synthesis kit (manufactured by Takara Bio). The obtained cDNA was amplified using PLATINUM Taq DNA polymerase (manufactured by Invitrogen) and PCR primers (having the sequences shown in Table 8) specific for the gene of interest. The PCR conditions included: performing an initial denaturation at 94° C. for 2 minutes; performing 35 cycles of denaturation (94° C. for 30 seconds), annealing (55° C. for 30 seconds), and extension (72° C. for 1 minute); and performing a final extension at 72° C. for 4 minutes.
The expression level of GAPDH as an endogenous control was determined using PCR primers of SEQ ID Nos: 10 and 11.
After the PCR was performed, DNA was separated by […] electrophoresis on a 2% agarose gel containing ethidium bromide, and the intensity of bands was quantified using an image analyzer GEL PRINT 2000i/VGA (manufactured by Genomic Solutions Inc.).

[4] = system: Raji cells; assay: BrdU incorporation assay, glucocorticoid sensitivity of oligonucleotide-transfected Raji cells; type: cell-based, human; settings: for BrdU incorporation: absorbance at 450 nm
Procedure: In order to examine the change of glucocorticoid sensitivity of cells caused by introduction of oligonucleotide 1, cell proliferation was quantified by a 5-bromo-2′-deoxyuridine (BrdU) incorporation assay. Dexamethasone (manufactured by Biomol) was used as a glucocorticoid. The concentration of dexamethasone was set to varied concentrations of 0 μM (no addition), 0.1 μM, 0.5 μM, 1 μM, 5 μM, and 10 μM.
Raji cells were cultured in serum-free RPMI1640 medium for 12 hours to synchronize the cell cycle, and then re-suspended in RPMI1640 medium supplemented with serum and inoculated onto a 96-well plate.
After dexamethasone was added, the cells were cultured for 22 hours. Then, BrdU was added thereto, and the cells were cultured for another 2 hours. After centrifugation, the supernatant was discarded, and the cells were dried and fixed. The fixed cells were allowed to react with a peroxidase-labeled anti-BrdU antibody for 1 hour at room temperature. Subsequently, the cells were washed three times with PBS, and tetramethylbenzidine was added thereto. When noticeable coloring was observed, the reaction was stopped by adding H2SO4 (1M). After vigorous agitation, absorbance at 450 nm was measured using a plate reader.
Using the Raji cells to which dexamethasone was not added as a control, cell proliferation inhibitory rate (%) was calculated based on the relative ratio of the obtained absorbance. Here, statistical significance was assessed with one-way analysis of variance and multiple comparison. Tukey's multiple comparison was used for the multiple comparison. A significance level of P<0.05 (vs. no addition of oligonucleotide) was regarded as a significant difference.
BrdU incorporation assay was performed in the same manner as in the above, and alternation of the glucocorticoid sensitivity of the cells caused by the introduction of any one of oligonucleotides 2 to 5 was examined. Each experiment was carried out in quadruplicate. The values shown in Table 7 are average values thereof.

[5] = expression level (band intensity), oligonucleotide 1 300 nM
[6] = dexamethasone 0.1 μM, quadruplicate (Table 7), label dexamethasone = no oligonucleotide transfected
[7] = dexamethasone 0.5 μM, quadruplicate (Table 7), label dexamethasone = no oligonucleotide transfected
[8] = dexamethasone 1 μM, quadruplicate (Table 7), label dexamethasone = no oligonucleotide transfected
[9] = dexamethasone 5 μM, quadruplicate (Table 7), label dexamethasone = no oligonucleotide transfected

In the case of `Nc1ncn([C@H]2C[C@H](O)[C@@H](CO)O2)c(=O)n1` [5-aza-2′-deoxycytidine], the “GRα and GRβ expression levels” value [1] is listed as “increase GRα expression levels while decreasing GRβ expression levels”.

For `CCCC(=O)[O-].[Na+]` [sodium butyrate], the “GRα and GRβ expression levels” value [1] is listed as “increase GRα expression levels while decreasing GRβ expression levels”.

For `CC(/C=C/C(=O)NO)=C\[C@@H](C)C(=O)c1ccc(N(C)C)cc1` [trichostatin A], the “GRα and GRβ expression levels” value [1] is listed as “increase GRα expression levels while decreasing GRβ expression levels”.

“Oligonucleotide 1: an oligonucleotide having a base sequence represented by SEQ ID NO: 1 (5′-CTTTCTGGTTTTAACCACATAACATTCTATA-3′) (listed as DNA, chemistry not given here)” gave a GAPDH [2] of 3033.167, a GRα [2] of 3278.767 and a GRβ [2] of 4611.084. The GRα/GAPDH [2] was 1.082, the GRβ/GAPDH [2] was 1.519 and the “Relative value of GRα/GRβ” value [2] was 1.213. For the same molecule, the “expression level of GRβ, concentration dependency” value ([2]; various concentrations of oligonucleotide 1) was “decreased the expression level of GRβ in a concentration-dependent manner”, the GAPDH ([3]; expression level (band intensity), endogenous control, oligonucleotide 1 300 nM) was 2476.113 and the ERα [3, 5] was 2201.941. For the same molecule, the ERβ [3, 5] was 1299.820, the “regulation of the splicing of ER mRNA” value ([3]; in words) was “does not affect the regulation of the splicing of ER mRNA” and the ERα/ERβ ([3]; oligonucleotide 1 300 nM) was 1.694. The ERα/GAPDH ([3]; oligonucleotide 1 300 nM) was 0.889, the ERβ/GAPDH ([3]; oligonucleotide 1 300 nM) was 0.525 and the “Relative value of ERα/ERβ” value ([3]; oligonucleotide 1 300 nM, cells not transfected = 1) was “approximately 1”. For the same molecule, the “Relative value of ERα/ERβ” value ([3]; oligonucleotide 1 300 nM, cells not transfected = 1, listed as 1) was 1.001, the BrdU incorporation ([4]; dexamethasone 0 μM, triplicate) was 0.556 and the BrdU incorporation ([4]; dexamethasone 0.1 μM, triplicate, label dexamethasone = no oligonucleotide introduced) was 0.372. It also gave a BrdU incorporation ([4]; dexamethasone 0.5 μM, triplicate, label dexamethasone = no oligonucleotide introduced) of 0.286, a BrdU incorporation ([4]; dexamethasone 1 μM, triplicate, label dexamethasone = no oligonucleotide introduced) of 0.292 and a BrdU incorporation ([4]; dexamethasone 5 μM, triplicate, label dexamethasone = no oligonucleotide introduced) of 0.271. For the same molecule, the BrdU incorporation ([4]; dexamethasone 10 μM, triplicate, label dexamethasone = no oligonucleotide introduced) was 0.279, the “cell proliferation inhibitory rate” value ([4]; dexamethasone 0.1 μM vs no dexamethasone, triplicate, label dexamethasone = no oligonucleotide introduced) was 32.874% and the “cell proliferation inhibitory rate” value ([4]; dexamethasone 0.5 μM vs no dexamethasone, triplicate, label dexamethasone = no oligonucleotide introduced) was 48.364%. The “cell proliferation inhibitory rate” value ([4]; dexamethasone 1 μM vs no dexamethasone, triplicate, label dexamethasone = no oligonucleotide introduced) was 47.553%, the “cell proliferation inhibitory rate” value ([4]; dexamethasone 5 μM vs no dexamethasone, triplicate, label dexamethasone = no oligonucleotide introduced) was 50.624% and the “cell proliferation inhibitory rate” value ([4]; dexamethasone 10 μM vs no dexamethasone, triplicate, label dexamethasone = no oligonucleotide introduced) was 49.526%. For the same molecule, the “BrdU incorporation on addition of dexamethasone, compared to Raji cells not transfected” value ([4]; in words) was “significant reduction in BrdU incorporation”, the “cell proliferation inhibitory rate on addition of dexamethasone, compared to Raji cells not transfected” value ([4]; in words) was “significant increase in cell proliferation inhibitory rate” and the “glucocorticoid sensitivity of cells” value ([4]; in words) was “increased the glucocorticoid sensitivity of cells”.

Molecule “Oligonucleotide 2: an oligonucleotide having a base sequence represented by SEQ ID NO: 2 (5′-AAAAGGGCACAGCTTCTTTTCCCATTTAATGAAA-3′) (listed as DNA, chemistry not given here)” has a GAPDH [2] of 3169.938, a GRα [2] of 3340.440 and a GRβ [2] of 4641.922. The GRα/GAPDH [2] was 1.054, the GRβ/GAPDH [2] was 1.467 and the “Relative value of GRα/GRβ” value [2] was 1.226. For the same molecule, the “cell proliferation inhibitory rate” value [4, 6] was 10.541%, the “cell proliferation inhibitory rate” value [4, 7] was 19.044% and the “cell proliferation inhibitory rate” value [4, 8] was 22.769%. The “cell proliferation inhibitory rate” value [4, 9] was 36.402%.

Molecule “Oligonucleotide 3: an oligonucleotide having a base sequence represented by SEQ ID NO: 3 (5′-TAAGATGACTTTCTTTTCCCCCACGTATCCT-3′) (listed as DNA, chemistry not given here)” has a GAPDH [2] of 3128.467, a GRα [2] of 3177.814 and a GRβ [2] of 4596.457. For the same molecule, the GRα/GAPDH [2] was 1.015, the GRβ/GAPDH [2] was 1.471 and the “Relative value of GRα/GRβ” value [2] was 1.182. For the same molecule, the “cell proliferation inhibitory rate” value [4, 6] was 16.924%, the “cell proliferation inhibitory rate” value [4, 7] was 34.134% and the “cell proliferation inhibitory rate” value [4, 8] was 37.164%. The “cell proliferation inhibitory rate” value [4, 9] was 48.256%.

In the case of “Oligonucleotide 5: an oligonucleotide having a base sequence represented by SEQ ID NO: 5 (5′-CAGATTTTTTTATTATGATGT-3′) (listed as DNA, chemistry not given here)”, the GAPDH [2] is reported as 3087.403, the GRα [2] is reported as 3210.228 and the GRβ [2] is reported as 4516.989. The GRα/GAPDH [2] was 1.041, the GRβ/GAPDH [2] was 1.461 and the “Relative value of GRα/GRβ” value [2] was 1.210. For the same molecule, the “cell proliferation inhibitory rate” value [4, 6] was 29.842%, the “cell proliferation inhibitory rate” value [4, 7] was 26.632% and the “cell proliferation inhibitory rate” value [4, 8] was 32.895%. For the same molecule, the “cell proliferation inhibitory rate” value [4, 9] was 36.053%.
